Source: ChEMBL document CHEMBL5465560, “Selectivity Literature for EUbOPEN Chemogenomic Library” (2024)

Assays:
[1] = target: Leukocyte tyrosine kinase receptor (Homo sapiens, UniProt P29376); test: Selectivity interaction (KinomeScan (DiscoverX)) EUB0000666a LTK; settings: at 10 µM
[2] = target: Casein kinase I isoform epsilon (Homo sapiens, UniProt P49674); test: Selectivity interaction (KinomeScan (DiscoverX)) EUB0000229b CSNK1E; settings: at 10 µM
[3] = target: T1, Inhibitor of nuclear factor kappa-B kinase subunit beta (Homo sapiens) (UniProt O14920); test: Selectivity interaction (KinomeScan (DiscoverX)) EUB0000229b IKBKB; settings: at 10 µM
T1 sequence (whole entry): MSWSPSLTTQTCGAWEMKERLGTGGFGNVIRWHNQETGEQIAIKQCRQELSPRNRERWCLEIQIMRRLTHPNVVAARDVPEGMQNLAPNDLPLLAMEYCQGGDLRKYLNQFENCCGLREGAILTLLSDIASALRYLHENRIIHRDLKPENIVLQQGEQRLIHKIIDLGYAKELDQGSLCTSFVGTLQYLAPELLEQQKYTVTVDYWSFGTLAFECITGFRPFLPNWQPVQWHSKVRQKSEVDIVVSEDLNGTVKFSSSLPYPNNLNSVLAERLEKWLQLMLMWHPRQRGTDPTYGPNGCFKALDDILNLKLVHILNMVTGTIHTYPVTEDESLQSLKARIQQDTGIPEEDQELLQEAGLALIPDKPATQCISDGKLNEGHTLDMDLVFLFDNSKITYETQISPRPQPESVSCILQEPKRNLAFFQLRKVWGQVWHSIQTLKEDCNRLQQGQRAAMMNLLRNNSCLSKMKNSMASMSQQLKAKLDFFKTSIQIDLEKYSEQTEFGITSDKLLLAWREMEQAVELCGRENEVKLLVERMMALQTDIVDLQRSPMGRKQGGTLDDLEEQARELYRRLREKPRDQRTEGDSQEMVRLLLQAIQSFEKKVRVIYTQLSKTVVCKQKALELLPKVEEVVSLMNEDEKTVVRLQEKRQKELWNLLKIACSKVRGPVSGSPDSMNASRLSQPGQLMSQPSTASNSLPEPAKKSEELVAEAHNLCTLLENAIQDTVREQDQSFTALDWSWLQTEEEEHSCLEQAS

[4] = target: T2, Serine/threonine-protein kinase TBK1 (Homo sapiens) (UniProt Q9UHD2); test: Selectivity interaction (KinomeScan (DiscoverX)) EUB0001079a TBK1; settings: at 1 µM
T2 sequence (whole entry): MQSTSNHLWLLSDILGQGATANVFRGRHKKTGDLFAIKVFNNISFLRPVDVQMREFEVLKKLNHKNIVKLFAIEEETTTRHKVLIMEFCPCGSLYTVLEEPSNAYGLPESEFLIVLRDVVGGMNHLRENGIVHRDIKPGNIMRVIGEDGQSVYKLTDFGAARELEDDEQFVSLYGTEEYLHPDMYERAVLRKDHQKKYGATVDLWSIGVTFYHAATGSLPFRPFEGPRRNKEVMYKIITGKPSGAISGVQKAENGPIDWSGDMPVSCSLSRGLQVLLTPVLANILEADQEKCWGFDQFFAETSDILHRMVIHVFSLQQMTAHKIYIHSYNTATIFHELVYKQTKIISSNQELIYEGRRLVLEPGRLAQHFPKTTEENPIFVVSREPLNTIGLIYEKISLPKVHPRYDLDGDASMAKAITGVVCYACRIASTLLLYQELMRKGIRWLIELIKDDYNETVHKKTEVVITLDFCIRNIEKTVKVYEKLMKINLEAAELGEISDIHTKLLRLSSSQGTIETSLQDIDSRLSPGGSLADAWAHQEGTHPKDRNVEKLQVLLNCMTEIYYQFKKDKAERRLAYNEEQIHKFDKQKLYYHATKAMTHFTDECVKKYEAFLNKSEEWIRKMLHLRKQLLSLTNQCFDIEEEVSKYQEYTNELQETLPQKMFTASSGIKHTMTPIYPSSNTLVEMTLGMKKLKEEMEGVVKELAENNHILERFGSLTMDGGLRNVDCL

[5] = target: Tyrosine-protein kinase BTK (Homo sapiens, UniProt Q06187); settings: at 10 µM
Sequence of Tyrosine-protein kinase BTK (Q06187 whole entry): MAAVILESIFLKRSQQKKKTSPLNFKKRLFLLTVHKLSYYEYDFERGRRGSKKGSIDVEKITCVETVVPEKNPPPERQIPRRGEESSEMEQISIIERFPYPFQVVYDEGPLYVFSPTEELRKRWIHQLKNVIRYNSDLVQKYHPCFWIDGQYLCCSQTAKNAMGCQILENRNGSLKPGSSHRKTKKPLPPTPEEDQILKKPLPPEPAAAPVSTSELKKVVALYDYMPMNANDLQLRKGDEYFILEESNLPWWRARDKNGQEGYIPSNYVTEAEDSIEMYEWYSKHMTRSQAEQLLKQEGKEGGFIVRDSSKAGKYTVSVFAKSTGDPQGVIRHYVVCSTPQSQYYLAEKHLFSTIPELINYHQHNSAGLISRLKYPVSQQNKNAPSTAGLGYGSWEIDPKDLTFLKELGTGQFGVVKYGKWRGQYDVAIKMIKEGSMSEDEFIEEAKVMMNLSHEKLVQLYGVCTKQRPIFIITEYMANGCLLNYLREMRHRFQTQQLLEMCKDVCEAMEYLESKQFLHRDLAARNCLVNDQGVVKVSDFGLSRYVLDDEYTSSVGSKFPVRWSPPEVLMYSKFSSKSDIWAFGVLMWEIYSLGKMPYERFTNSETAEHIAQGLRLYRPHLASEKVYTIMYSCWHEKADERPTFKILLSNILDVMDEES

[6] = target: NT-3 growth factor receptor (Homo sapiens, UniProt Q16288); settings: at 10 µM
Sequence of NT-3 growth factor receptor (Q16288 32-839 limits assumed): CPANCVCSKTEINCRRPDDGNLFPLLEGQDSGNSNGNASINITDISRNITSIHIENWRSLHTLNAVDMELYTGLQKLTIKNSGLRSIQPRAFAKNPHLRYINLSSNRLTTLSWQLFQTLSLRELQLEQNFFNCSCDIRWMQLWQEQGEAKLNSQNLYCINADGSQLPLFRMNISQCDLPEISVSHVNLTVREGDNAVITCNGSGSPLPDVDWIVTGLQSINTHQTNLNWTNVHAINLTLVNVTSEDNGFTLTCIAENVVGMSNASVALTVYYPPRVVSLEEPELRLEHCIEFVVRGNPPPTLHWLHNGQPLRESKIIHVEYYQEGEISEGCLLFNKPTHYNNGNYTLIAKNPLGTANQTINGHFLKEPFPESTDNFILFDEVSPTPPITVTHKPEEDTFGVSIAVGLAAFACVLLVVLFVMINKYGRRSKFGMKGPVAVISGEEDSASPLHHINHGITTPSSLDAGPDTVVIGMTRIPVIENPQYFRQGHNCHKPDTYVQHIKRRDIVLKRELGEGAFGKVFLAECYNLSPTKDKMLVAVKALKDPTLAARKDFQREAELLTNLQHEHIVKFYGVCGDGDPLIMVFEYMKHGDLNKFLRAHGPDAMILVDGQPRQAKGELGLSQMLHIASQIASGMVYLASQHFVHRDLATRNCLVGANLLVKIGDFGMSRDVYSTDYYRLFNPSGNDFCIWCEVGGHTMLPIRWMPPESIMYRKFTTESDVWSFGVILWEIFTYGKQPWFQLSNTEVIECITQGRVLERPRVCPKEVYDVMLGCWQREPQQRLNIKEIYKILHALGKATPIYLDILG

[7] = target: Protein polybromo-1 (Homo sapiens) (UniProt Q86U86); test: Selectivity interaction (Bromodomain panel (DSF asssay)) EUB0000270b PBRM1
Sequence of Protein polybromo-1 (Homo sapiens) (Q86U86 whole entry): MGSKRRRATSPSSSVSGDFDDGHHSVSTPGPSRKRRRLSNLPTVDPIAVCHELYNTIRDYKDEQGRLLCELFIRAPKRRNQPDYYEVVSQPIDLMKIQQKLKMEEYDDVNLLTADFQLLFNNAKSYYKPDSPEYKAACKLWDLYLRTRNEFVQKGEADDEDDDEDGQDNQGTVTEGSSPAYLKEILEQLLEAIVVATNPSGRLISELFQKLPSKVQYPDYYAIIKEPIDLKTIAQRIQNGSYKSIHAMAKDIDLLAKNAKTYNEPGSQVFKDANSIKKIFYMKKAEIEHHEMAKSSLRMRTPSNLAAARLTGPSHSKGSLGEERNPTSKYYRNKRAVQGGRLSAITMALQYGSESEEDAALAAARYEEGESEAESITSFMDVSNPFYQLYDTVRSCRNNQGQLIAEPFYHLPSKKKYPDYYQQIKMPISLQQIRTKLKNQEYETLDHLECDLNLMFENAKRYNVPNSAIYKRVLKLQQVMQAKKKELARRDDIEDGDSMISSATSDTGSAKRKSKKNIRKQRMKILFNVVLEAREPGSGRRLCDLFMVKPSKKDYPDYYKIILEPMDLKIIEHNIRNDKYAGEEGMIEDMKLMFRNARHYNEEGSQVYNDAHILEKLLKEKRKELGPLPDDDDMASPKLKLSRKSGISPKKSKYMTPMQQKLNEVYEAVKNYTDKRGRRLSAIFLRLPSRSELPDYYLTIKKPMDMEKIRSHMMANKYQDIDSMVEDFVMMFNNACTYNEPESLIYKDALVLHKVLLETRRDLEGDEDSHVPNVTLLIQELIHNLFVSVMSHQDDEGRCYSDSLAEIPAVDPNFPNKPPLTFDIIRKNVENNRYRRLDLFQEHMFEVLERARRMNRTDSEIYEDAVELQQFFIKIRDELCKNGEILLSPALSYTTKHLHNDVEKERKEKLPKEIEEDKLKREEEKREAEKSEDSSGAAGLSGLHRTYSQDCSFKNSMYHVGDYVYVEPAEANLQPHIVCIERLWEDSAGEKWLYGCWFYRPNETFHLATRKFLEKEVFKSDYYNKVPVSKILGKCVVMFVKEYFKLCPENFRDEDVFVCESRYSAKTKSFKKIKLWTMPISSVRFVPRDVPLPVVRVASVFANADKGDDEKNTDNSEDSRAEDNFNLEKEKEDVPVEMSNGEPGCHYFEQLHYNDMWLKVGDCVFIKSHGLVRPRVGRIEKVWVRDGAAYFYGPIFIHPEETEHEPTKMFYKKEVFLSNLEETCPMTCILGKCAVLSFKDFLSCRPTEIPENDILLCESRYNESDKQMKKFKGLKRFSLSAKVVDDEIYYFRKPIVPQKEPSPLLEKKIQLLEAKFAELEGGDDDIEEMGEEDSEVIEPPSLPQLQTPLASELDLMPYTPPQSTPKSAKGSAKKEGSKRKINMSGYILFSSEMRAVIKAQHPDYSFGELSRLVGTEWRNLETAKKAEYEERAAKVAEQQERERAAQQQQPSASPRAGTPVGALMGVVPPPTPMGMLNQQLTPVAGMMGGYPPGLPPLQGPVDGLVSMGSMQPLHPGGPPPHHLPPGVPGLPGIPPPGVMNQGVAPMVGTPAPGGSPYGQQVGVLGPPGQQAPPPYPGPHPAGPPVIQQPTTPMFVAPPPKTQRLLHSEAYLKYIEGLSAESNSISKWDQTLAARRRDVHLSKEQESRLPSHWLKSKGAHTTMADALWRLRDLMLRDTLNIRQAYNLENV

SRSF protein kinase 1 = SRSF protein kinase 1 (Homo sapiens, UniProt Q96SB4); settings: at 10 µM
Sequence of SRSF protein kinase 1 (Q96SB4 whole entry): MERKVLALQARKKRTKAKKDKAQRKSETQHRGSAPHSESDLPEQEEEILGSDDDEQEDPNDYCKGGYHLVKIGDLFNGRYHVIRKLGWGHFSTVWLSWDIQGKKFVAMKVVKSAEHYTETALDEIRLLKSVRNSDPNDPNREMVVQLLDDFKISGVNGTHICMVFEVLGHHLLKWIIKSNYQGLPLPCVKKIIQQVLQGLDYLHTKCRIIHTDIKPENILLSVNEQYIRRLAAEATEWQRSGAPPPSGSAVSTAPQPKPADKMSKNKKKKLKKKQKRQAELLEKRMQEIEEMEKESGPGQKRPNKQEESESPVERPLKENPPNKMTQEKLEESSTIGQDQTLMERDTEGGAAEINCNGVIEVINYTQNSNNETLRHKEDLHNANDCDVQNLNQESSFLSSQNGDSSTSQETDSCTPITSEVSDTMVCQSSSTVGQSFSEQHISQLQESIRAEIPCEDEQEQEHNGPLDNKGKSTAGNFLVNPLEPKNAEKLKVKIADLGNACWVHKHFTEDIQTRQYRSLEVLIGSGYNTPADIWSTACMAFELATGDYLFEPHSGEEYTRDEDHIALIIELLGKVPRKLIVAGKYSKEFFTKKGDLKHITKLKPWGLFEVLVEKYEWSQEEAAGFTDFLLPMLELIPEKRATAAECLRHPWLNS

[8] = target: T3, MAP kinase-activated protein kinase 5 (Homo sapiens) (UniProt Q8IW41); test: Selectivity interaction (Upstate Kinase Profiler service (Millipore)) EUB0000056c MAPKAPK5; settings: at 1 µM
T3 sequence (whole entry): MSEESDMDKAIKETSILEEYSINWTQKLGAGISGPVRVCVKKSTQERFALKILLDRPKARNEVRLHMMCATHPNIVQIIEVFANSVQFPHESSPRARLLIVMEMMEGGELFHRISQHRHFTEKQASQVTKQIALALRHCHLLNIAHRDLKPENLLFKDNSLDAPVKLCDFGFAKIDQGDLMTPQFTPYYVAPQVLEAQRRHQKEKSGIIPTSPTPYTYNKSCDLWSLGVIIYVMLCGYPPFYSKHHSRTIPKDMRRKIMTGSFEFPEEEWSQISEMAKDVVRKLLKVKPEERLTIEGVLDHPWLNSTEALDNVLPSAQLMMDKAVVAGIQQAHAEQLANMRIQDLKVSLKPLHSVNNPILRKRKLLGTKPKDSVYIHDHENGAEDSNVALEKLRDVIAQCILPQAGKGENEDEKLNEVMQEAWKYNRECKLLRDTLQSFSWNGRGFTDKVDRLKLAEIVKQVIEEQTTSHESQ

[9] = target: CDK4/Cyclin D3 (Homo sapiens) (UniProt P11802+P30281); test: (§1) Selectivity interaction (KinomeScan (DiscoverX)) EUB0000607a CDK4; type: protein-complex assay; settings: at 10 µM
[10] = target: Cyclin-dependent kinase 4/cyclin D1 (Homo sapiens) (UniProt P11802+P24385); test: as §1; type: protein-complex assay; settings: at 10 µM
[11] = target: T4, Aurora kinase A (Homo sapiens) (UniProt O14965); test: Selectivity interaction (Kinase panel (Carna Biosciences)) EUB0001542aTs STK6; settings: at 1 µM
T4 sequence (whole entry): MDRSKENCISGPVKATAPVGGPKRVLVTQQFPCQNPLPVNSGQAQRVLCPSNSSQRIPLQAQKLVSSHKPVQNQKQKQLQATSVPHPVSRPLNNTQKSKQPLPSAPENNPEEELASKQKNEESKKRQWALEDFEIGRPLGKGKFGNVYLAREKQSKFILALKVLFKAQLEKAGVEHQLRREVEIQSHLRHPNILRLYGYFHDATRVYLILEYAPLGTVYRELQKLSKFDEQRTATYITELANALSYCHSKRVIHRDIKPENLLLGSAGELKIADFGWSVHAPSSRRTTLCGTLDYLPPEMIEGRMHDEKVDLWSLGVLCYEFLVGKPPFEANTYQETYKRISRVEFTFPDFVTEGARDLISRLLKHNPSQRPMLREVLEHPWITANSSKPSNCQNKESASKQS

Sequence of Casein kinase I isoform epsilon (P49674 whole entry, looked up, canonical isoform): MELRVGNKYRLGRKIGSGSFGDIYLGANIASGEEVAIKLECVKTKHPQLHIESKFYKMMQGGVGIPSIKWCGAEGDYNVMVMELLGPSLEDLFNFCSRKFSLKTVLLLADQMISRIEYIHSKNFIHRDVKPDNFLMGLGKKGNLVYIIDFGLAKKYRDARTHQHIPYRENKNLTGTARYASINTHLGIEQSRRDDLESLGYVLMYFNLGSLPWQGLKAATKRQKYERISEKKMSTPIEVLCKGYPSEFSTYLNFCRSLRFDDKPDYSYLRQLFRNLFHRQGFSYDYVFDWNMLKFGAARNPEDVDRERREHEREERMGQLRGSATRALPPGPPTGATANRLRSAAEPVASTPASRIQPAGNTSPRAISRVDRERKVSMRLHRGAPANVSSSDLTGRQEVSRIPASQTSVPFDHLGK
Sequence of Leukocyte tyrosine kinase receptor (P29376 whole entry, canonical isoform): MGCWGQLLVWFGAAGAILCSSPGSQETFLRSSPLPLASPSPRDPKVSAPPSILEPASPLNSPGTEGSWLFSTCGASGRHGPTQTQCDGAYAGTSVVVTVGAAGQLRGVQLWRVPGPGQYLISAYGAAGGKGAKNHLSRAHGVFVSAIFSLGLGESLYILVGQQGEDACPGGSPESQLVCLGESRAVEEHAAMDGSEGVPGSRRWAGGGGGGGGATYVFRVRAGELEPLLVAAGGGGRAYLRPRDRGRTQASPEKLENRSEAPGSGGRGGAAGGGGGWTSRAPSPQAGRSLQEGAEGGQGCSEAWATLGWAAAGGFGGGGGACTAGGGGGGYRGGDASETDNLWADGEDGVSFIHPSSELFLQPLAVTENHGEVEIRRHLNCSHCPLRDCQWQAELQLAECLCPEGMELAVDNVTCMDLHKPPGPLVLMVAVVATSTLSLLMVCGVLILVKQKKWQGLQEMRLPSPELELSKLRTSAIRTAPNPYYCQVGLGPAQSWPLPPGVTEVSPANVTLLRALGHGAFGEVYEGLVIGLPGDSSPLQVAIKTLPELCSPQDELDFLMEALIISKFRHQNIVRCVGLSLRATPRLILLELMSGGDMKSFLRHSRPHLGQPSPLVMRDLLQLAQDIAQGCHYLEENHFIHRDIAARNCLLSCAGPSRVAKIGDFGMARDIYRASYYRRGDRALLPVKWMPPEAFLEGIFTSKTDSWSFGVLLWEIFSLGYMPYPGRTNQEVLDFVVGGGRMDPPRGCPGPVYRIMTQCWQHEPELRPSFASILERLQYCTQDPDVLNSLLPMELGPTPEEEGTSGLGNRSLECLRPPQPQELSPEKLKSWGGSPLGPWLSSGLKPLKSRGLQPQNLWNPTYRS

`O=C(NOC[C@H](O)CO)c1ccc(F)c(F)c1Nc1ccc(I)cc1F` showed a % of control [1] of 100%.
For `COc1cc(N(C)c2ccnc3ccc(C(F)(F)F)cc23)cc(OC)c1OC`, the % binding [2] was 54% and the % binding [3] was 94%.
Compound `Nc1cnc(N2CCc3cc(S(=O)(=O)Nc4c(F)cc(Cl)cc4F)cc(N4CCCC4=O)c32)nc1` [TP-020n] has a % of control [4] of 85%.
In the case of `CCN(CC)CCCCNc1ncc2cc(-c3cc(OC)cc(OC)c3)c(NC(=O)NC(C)(C)C)nc2n1`, the % of control [5] was 100% and the % of control [6] was 100%.
`Cc1cc(CN)cc(C)c1-c1ncn(C)c1-c1cncn1C` gave a dTM [7] of -1.91 K.
For `Cc1cc([C@@H](C)Nc2ccccc2C(=O)O)c2nc(N3CCOCC3)cc(=O)n2c1` [AZD-6482], the % of control (SRSF protein kinase 1) was 100%.
`Cc1ccc(-c2ccc3c(ccc4sc5c(c43)NC[C@@H](C)NC5=O)n2)cn1` was tested, and the % of inhibition [8] was 99%.
`CNC(=O)Nc1ccc(-c2nc(N3CC4CCC(C3)O4)c3cnn(C4CCC5(CC4)OCCO5)c3n2)cc1` was tested, and the % of control [9] was 92% and the % of control [10] was 90%.
Work on `Cn1cc(Nc2nccc(N3CC4CCC(C3)N4C(=O)[C@@H]3CC3(F)F)n2)cn1` yielded a % of inhibition [11] of 97%.
